Source: PubChem BioAssay (NCI)
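Interpolation was linear, between the two tested concentrations surrounding the appropriate level; five concentrations were tested over 48 hours in 96-well plates. At the TGI there is no net growth.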

What was measured:
Assay in all cases: DTP human tumour cell line panel, 48 h
786-0 renal = tested on: 786-0 renal
A498 renal = tested on: A498 renal
A549 NSCLC = tested on: A549 NSCLC
ACHN renal = tested on: ACHN renal
BT-549 breast = tested on: BT-549 breast
CAKI-1 renal = tested on: CAKI-1 renal
COLO 205 colon = tested on: COLO 205 colon
DU-145 prostate = tested on: DU-145 prostate
EKVX NSCLC = tested on: EKVX NSCLC
HCT-116 colon = tested on: HCT-116 colon
HCT-15 colon = tested on: HCT-15 colon
HOP-62 NSCLC = tested on: HOP-62 NSCLC
HOP-92 NSCLC = tested on: HOP-92 NSCLC
HS 578T breast = tested on: HS 578T breast
HT29 colon = tested on: HT29 colon
K-562 leukemia = tested on: K-562 leukemia
KM12 colon = tested on: KM12 colon
LOX IMVI melanoma = tested on: LOX IMVI melanoma
M14 melanoma = tested on: M14 melanoma
MALME-3M melanoma = tested on: MALME-3M melanoma
MCF7 breast = tested on: MCF7 breast
MDA-MB-231 breast = tested on: MDA-MB-231 breast
MDA-MB-435 = tested on: MDA-MB-435
MDA-N = tested on: MDA-N
MOLT-4 leukemia = tested on: MOLT-4 leukemia
NCI-H226 lung = tested on: NCI-H226 lung
NCI-H23 lung = tested on: NCI-H23 lung
NCI-H522 lung = tested on: NCI-H522 lung
NCI/ADR-RES ovarian = tested on: NCI/ADR-RES ovarian
OVCAR-4 ovarian = tested on: OVCAR-4 ovarian
OVCAR-5 ovarian = tested on: OVCAR-5 ovarian
OVCAR-8 ovarian = tested on: OVCAR-8 ovarian
PC-3 prostate = tested on: PC-3 prostate
RXF 393 renal = tested on: RXF 393 renal
SF-268 CNS = tested on: SF-268 CNS
SF-295 CNS = tested on: SF-295 CNS
SK-MEL-2 melanoma = tested on: SK-MEL-2 melanoma
SK-MEL-28 melanoma = tested on: SK-MEL-28 melanoma
SK-MEL-5 melanoma = tested on: SK-MEL-5 melanoma
SK-OV-3 ovarian = tested on: SK-OV-3 ovarian
SN12C renal = tested on: SN12C renal
SNB-19 CNS = tested on: SNB-19 CNS
SNB-75 CNS = tested on: SNB-75 CNS
SR leukemia = tested on: SR leukemia
T-47D breast = tested on: T-47D breast
TK-10 renal = tested on: TK-10 renal
U251 CNS = tested on: U251 CNS
UACC-257 melanoma = tested on: UACC-257 melanoma
UACC-62 melanoma = tested on: UACC-62 melanoma
UO-31 renal = tested on: UO-31 renal
CCRF-CEM leukemia = tested on: CCRF-CEM leukemia
HCC-2998 colon = tested on: HCC-2998 colon
HL-60(TB) leukemia = tested on: HL-60(TB) leukemia
IGROV1 ovarian = tested on: IGROV1 ovarian
NCI-H460 lung = tested on: NCI-H460 lung
OVCAR-3 ovarian = tested on: OVCAR-3 ovarian
RPMI-8226 leukemia = tested on: RPMI-8226 leukemia
SF-539 CNS = tested on: SF-539 CNS
SW-620 colon = tested on: SW-620 colon

**Q.** What does the source list for `c1cc2c3c(c1)[C@@H]1O[C@@H]1c1cccc(c1-3)[C@@H]1O[C@H]21`?
**A.** TGI (786-0 renal): 75 µM; TGI (A498 renal): > 100 µM; TGI (A549 NSCLC): > 100 µM; TGI (ACHN renal): 43 µM; TGI (BT-549 breast): 98.5 µM; TGI (CAKI-1 renal): 32.7 µM; TGI (COLO 205 colon): 44.6 µM; TGI (DU-145 prostate): 38.7 µM; TGI (EKVX NSCLC): 34.4 µM; TGI (HCT-116 colon): 38.5 µM; TGI (HCT-15 colon): 47.2 µM; TGI (HOP-62 NSCLC): > 100 µM; TGI (HOP-92 NSCLC): 50.2 µM; TGI (HS 578T breast): 40 µM; TGI (HT29 colon): 50.1 µM; TGI (K-562 leukemia): > 100 µM; TGI (KM12 colon): 44 µM; TGI (LOX IMVI melanoma): 10.7 µM; TGI (M14 melanoma): 34.1 µM; TGI (MALME-3M melanoma): 29.6 µM; TGI (MCF7 breast): > 100 µM; TGI (MDA-MB-231 breast): 41.8 µM; TGI (MDA-MB-435): 32.5 µM; TGI (MDA-N): 41.9 µM; TGI (MOLT-4 leukemia): > 100 µM; TGI (NCI-H226 lung): > 100 µM; TGI (NCI-H23 lung): 33.1 µM; TGI (NCI-H522 lung): 30.1 µM; TGI (NCI/ADR-RES ovarian): 61.6 µM; TGI (OVCAR-4 ovarian): 56.3 µM; TGI (OVCAR-5 ovarian): 31.4 µM; TGI (OVCAR-8 ovarian): 46.2 µM; TGI (PC-3 prostate): 51.9 µM; TGI (RXF 393 renal): 17.2 µM; TGI (SF-268 CNS): 33.6 µM; TGI (SF-295 CNS): > 100 µM; TGI (SK-MEL-2 melanoma): 42.5 µM; TGI (SK-MEL-28 melanoma): 31.3 µM; TGI (SK-MEL-5 melanoma): 35.6 µM; TGI (SK-OV-3 ovarian): > 100 µM; TGI (SN12C renal): 54.2 µM; TGI (SNB-19 CNS): > 100 µM; TGI (SNB-75 CNS): 70.1 µM; TGI (SR leukemia): > 100 µM; TGI (T-47D breast): 62.8 µM; TGI (TK-10 renal): > 100 µM; TGI (U251 CNS): 33 µM; TGI (UACC-257 melanoma): 48.4 µM; TGI (UACC-62 melanoma): 33.3 µM; TGI (UO-31 renal): 30.3 µM

**Q.** For `CN1CCCC(OC(=O)c2cc3cc(CCl)ccc3oc2=O)C1` (stereo not drawn), which TGI (786-0 renal) is on record?
**A.** 58.4 µM

**Q.** And the TGI (A549 NSCLC)?
**A.** > 100 µM

**Q.** What about the TGI (ACHN renal) of the same molecule?
**A.** 51.1 µM

**Q.** And the TGI (BT-549 breast)?
**A.** 49.2 µM

**Q.** What about the TGI (CAKI-1 renal) of the same molecule?
**A.** 60.5 µM

**Q.** What about the TGI (CCRF-CEM leukemia) of the same molecule?
**A.** 55 µM

**Q.** What about the TGI (COLO 205 colon) of the same molecule?
**A.** 35.7 µM

**Q.** And the TGI (DU-145 prostate)?
**A.** > 100 µM

**Q.** And the TGI (EKVX NSCLC)?
**A.** 91.5 µM

**Q.** And the TGI (HCC-2998 colon)?
**A.** 33.1 µM

**Q.** And the TGI (HCT-116 colon)?
**A.** 48.7 µM

**Q.** What about the TGI (HCT-15 colon) of the same molecule?
**A.** 51.9 µM

**Q.** What about the TGI (HL-60(TB) leukemia) of the same molecule?
**A.** 13.2 µM

**Q.** What about the TGI (HOP-62 NSCLC) of the same molecule?
**A.** 67.7 µM

**Q.** What about the TGI (HOP-92 NSCLC) of the same molecule?
**A.** 30.5 µM

**Q.** What about the TGI (HS 578T breast) of the same molecule?
**A.** 56.6 µM

**Q.** And the TGI (HT29 colon)?
**A.** 46.9 µM

**Q.** What about the TGI (IGROV1 ovarian) of the same molecule?
**A.** > 100 µM

**Q.** What about the TGI (K-562 leukemia) of the same molecule?
**A.** > 100 µM

**Q.** And the TGI (KM12 colon)?
**A.** 68.3 µM

**Q.** And the TGI (LOX IMVI melanoma)?
**A.** 34.3 µM

**Q.** And the TGI (M14 melanoma)?
**A.** 39.3 µM

**Q.** And the TGI (MALME-3M melanoma)?
**A.** 44.3 µM

**Q.** What about the TGI (MCF7 breast) of the same molecule?
**A.** 50.1 µM

**Q.** And the TGI (MDA-MB-231 breast)?
**A.** 52.1 µM

**Q.** And the TGI (MDA-MB-435)?
**A.** 41.6 µM

**Q.** And the TGI (MDA-N)?
**A.** 46 µM

**Q.** What about the TGI (MOLT-4 leukemia) of the same molecule?
**A.** 98 µM

**Q.** And the TGI (NCI-H226 lung)?
**A.** 58.1 µM

**Q.** What about the TGI (NCI-H23 lung) of the same molecule?
**A.** 45.1 µM

**Q.** What about the TGI (NCI-H460 lung) of the same molecule?
**A.** 44.9 µM

**Q.** What about the TGI (NCI-H522 lung) of the same molecule?
**A.** 34.7 µM

**Q.** And the TGI (NCI/ADR-RES ovarian)?
**A.** 87 µM

**Q.** What about the TGI (OVCAR-3 ovarian) of the same molecule?
**A.** 37.8 µM

**Q.** And the TGI (OVCAR-4 ovarian)?
**A.** 48.6 µM

**Q.** What about the TGI (OVCAR-5 ovarian) of the same molecule?
**A.** 43.4 µM

**Q.** And the TGI (OVCAR-8 ovarian)?
**A.** > 100 µM

**Q.** And the TGI (PC-3 prostate)?
**A.** 41.3 µM

**Q.** And the TGI (RPMI-8226 leukemia)?
**A.** 89.1 µM

**Q.** And the TGI (RXF 393 renal)?
**A.** 54.6 µM

**Q.** What about the TGI (SF-268 CNS) of the same molecule?
**A.** 47 µM

**Q.** What about the TGI (SF-295 CNS) of the same molecule?
**A.** 77.9 µM

**Q.** And the TGI (SF-539 CNS)?
**A.** > 100 µM

**Q.** And the TGI (SK-MEL-2 melanoma)?
**A.** 33.9 µM

**Q.** And the TGI (SK-MEL-28 melanoma)?
**A.** 50.3 µM

**Q.** And the TGI (SK-MEL-5 melanoma)?
**A.** 33.9 µM

**Q.** What about the TGI (SK-OV-3 ovarian) of the same molecule?
**A.** > 100 µM

**Q.** What about the TGI (SN12C renal) of the same molecule?
**A.** 43.6 µM

**Q.** What about the TGI (SNB-19 CNS) of the same molecule?
**A.** > 100 µM

**Q.** What about the TGI (SNB-75 CNS) of the same molecule?
**A.** 52.8 µM

**Q.** What about the TGI (SR leukemia) of the same molecule?
**A.** 70.1 µM

**Q.** And the TGI (SW-620 colon)?
**A.** 64.8 µM

**Q.** What about the TGI (T-47D breast) of the same molecule?
**A.** > 100 µM

**Q.** And the TGI (TK-10 renal)?
**A.** 48.8 µM

**Q.** And the TGI (U251 CNS)?
**A.** 30.1 µM

**Q.** What about the TGI (UACC-257 melanoma) of the same molecule?
**A.** 40.2 µM

**Q.** What about the TGI (UACC-62 melanoma) of the same molecule?
**A.** 31.6 µM

**Q.** And the TGI (UO-31 renal)?
**A.** 32.5 µM
